According to PubChem BioAssay AID328 (DTP/NCI, 2004):
Several values for one entry are separate records, joined by “and”; a condition that tells them apart may be missing. Identical values can stand only once. Toxic doses and inconclusive results are not listed.

System: BDF1 mice, P388 leukemia ip, median survival T/C
Assay: NCI In Vivo Anticancer Drug Screen. Data for tumor model P388 Leukemia (intraperitoneal) in B6D2F1 (BDF1) mice
Details: endpoint: median survival time, higher = longer survival
How it was run: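 In tumour-bearing mice, survival after compound treatment is set against the vehicle group and given as a quotient.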

[1] = dose: 25.0 mg/kg/injection, schedule: Q01DX009 (ip), vehicle: Klucel (hydroxypropylcellulose) (HPC)
[2] = dose: 50.0 mg/kg/injection, schedule: Q01DX009 (ip), vehicle: Klucel (hydroxypropylcellulose) (HPC)
[3] = dose: 100.0 mg/kg/injection, schedule: Q01DX009 (ip), vehicle: Klucel (hydroxypropylcellulose) (HPC)
[4] = dose: 100.0 mg/kg/injection, schedule: Q04DX003 (ip), vehicle: Klucel (hydroxypropylcellulose) (HPC)
[5] = dose: 50.0 mg/kg/injection, schedule: Q01DX009 (ip), vehicle: saline
[6] = dose: 100.0 mg/kg/injection, schedule: Q01DX009 (ip), vehicle: saline
[7] = dose: 200.0 mg/kg/injection, schedule: Q01DX009 (ip), vehicle: saline

Clc1cc(Cl)c2c(c1)COCO2
T/C [1]: 104 % of control
T/C [2]: 100 % of control
T/C [3]: 109 % of control
T/C [4]: 90 % of control
T/C (dose: 200.0 mg/kg/injection, schedule: Q01DX009 (ip), vehicle: Klucel (hydroxypropylcellulose) (HPC)): 90 % of control
T/C (dose: 200.0 mg/kg/injection, schedule: Q04DX003 (ip), vehicle: Klucel (hydroxypropylcellulose) (HPC)): 100 % of control
T/C (dose: 400.0 mg/kg/injection, schedule: Q04DX003 (ip), vehicle: Klucel (hydroxypropylcellulose) (HPC)): 100 % of control

CCOC(=O)/C=C\CBr
T/C (dose: 1.5 mg/kg/injection, schedule: Q01DX010 (ip), vehicle: saline): 100 % of control
T/C (dose: 3.0 mg/kg/injection, schedule: Q01DX010 (ip), vehicle: saline): 100 % of control
T/C (dose: 6.0 mg/kg/injection, schedule: Q01DX010 (ip), vehicle: saline): 105 % of control
T/C (dose: 12.0 mg/kg/injection, schedule: Q01DX010 (ip), vehicle: saline): 100 % of control and 115 % of control
T/C (dose: 24.0 mg/kg/injection, schedule: Q01DX010 (ip), vehicle: saline): 100 % of control
T/C (dose: 48.0 mg/kg/injection, schedule: Q01DX010 (ip), vehicle: saline): 120 % of control

CCN(CC)CCCC#CCN1CCCCC1
T/C [1]: 100 % of control
T/C (dose: 25.0 mg/kg/injection, schedule: Q04DX003 (ip), vehicle: Klucel (hydroxypropylcellulose) (HPC)): 91 % of control
T/C [2]: 90 % of control
T/C (dose: 50.0 mg/kg/injection, schedule: Q04DX003 (ip), vehicle: Klucel (hydroxypropylcellulose) (HPC)): 91 % of control
T/C [3]: 100 % of control
T/C [4]: 91 % of control

CCCCCCCCCCCCCCCCNCCO
T/C [2]: 110 % of control
T/C [3]: 112 % of control

CCCCN=C(N)N=C(N)N
T/C [5]: 105 % of control
T/C [6]: 108 % of control

COc1cc2c(cc1OC)C(=O)N(C)CC2
T/C [5]: 105 % of control
T/C (dose: 100.0 mg/kg/injection, schedule: Q01DX009 (ip), vehicle: water): 97 % of control
T/C [7]: 119 % of control

O=C(NC1=NN(c2ccccc2)C(=O)C1)c1ccccc1
T/C (dose: 37.5 mg/kg/injection, schedule: Q01DX009 (ip), vehicle: saline with Tween-80): 105 % of control
T/C (dose: 150.0 mg/kg/injection, schedule: Q01DX009 (ip), vehicle: saline with Tween-80): 96 % of control

COc1cc(O)c(C(=O)c2ccccc2)cc1S(=O)(=O)O
T/C [6]: 110 % of control
T/C (dose: 100.0 mg/kg/injection, schedule: Q04DX003 (ip), vehicle: saline): 109 % of control
T/C [7]: 110 % of control
T/C (dose: 200.0 mg/kg/injection, schedule: Q04DX003 (ip), vehicle: saline): 100 % of control
T/C (dose: 400.0 mg/kg/injection, schedule: Q01DX009 (ip), vehicle: saline): 110 % of control
T/C (dose: 400.0 mg/kg/injection, schedule: Q04DX003 (ip), vehicle: saline): 100 % of control

C[n+]1c2cc(N)ccc2cc2ccc(N)cc21
T/C (dose: 8.0 mg/kg/injection, schedule: Q01DX009 (ip), vehicle: saline): 152 % of control
T/C (dose: 12.0 mg/kg/injection, schedule: Q01DX009 (ip), vehicle: saline): 167 % of control

COc1cc(C(=O)N2CCN(c3ccccc3)CC2)c2ccccc2n1
T/C (dose: 180.0 mg/kg/injection, schedule: Q01DX010 (ip), vehicle: carboxymethylcellulose (CMC)): 114 % of control
T/C (dose: 266.0 mg/kg/injection, schedule: Q01DX010 (ip), vehicle: carboxymethylcellulose (CMC)): 104 % of control
T/C (dose: 400.0 mg/kg/injection, schedule: Q01DX010 (ip), vehicle: carboxymethylcellulose (CMC)): 104 % of control
T/C (dose: 600.0 mg/kg/injection, schedule: Q01DX010 (ip), vehicle: carboxymethylcellulose (CMC)): 95 % of control
